Experimental data reported in patent publication US10035805B2, “Tricyclic triazolic compounds” (LABORATORIOS DEL DR. ESTEVE S.A., priority 2014, dated 2018).
Where a name gives a salt, the structure may show the parent alone.

molecular target: T1, sigma-1 receptor (Cavia porcellus, UniProt Q60492); test: Sigma-1 receptor radioligand binding assay with [3H]-(+)-pentazocine in guinea pig brain membranes; settings: radioligand [3H]-(+)-pentazocine at 5.0 nM, 150 min at 37° C., nonspecific binding with 1 μM haloperidol
T1 construct: Guinea pig brains were homogenized in 10 vols; (w/v) of Tris-HCl 50 mM 0.32 M sucrose; from tissue; host or cells: guinea pig brain membranes
Experimental: Brain membrane preparation and binding assays for the al-receptor were performed as described (DeHaven-Hudkins, D. L., L. C. Fleissner, and F. Y. Ford-Rice, 1992, Characterization of the binding of [^3H](+)pentazocine to a recognition sites in guinea pig brain, Eur. J. Pharmacol. 227, 371-378) with some modifications. Guinea pig brains were homogenized in 10 vols. (w/v) of Tris-HCl 50 mM 0.32 M sucrose, pH 7.4, with a Kinematica Polytron PT 3000 at 15000 r.p.m. for 30 s. The homogenate was centrifuged at 1000 g for 10 min at 4° C. and the supernatants collected and centrifuged again at 48000 g for 15 min at 4° C. The pellet was resuspended in 10 volumes of Tris-HCl buffer (50 mM, pH 7.4), incubated at 37° C. for 30 min, and centrifuged at 48000 g for 20 min at 4° C. Following this, the pellet was resuspended in fresh Tris-HCl buffer (50 mM, pH 7.4) and stored on ice until use.
The radioligand used was [^3H]-(+)-pentazocine at 5.0 nM and the final volume was 200 μl. The incubation was initiated with the addition of 100 μl of membrane at a final tissue concentration of approximately 5 mg tissue net weight/mL and the incubation time was 150 m. at 37° C. After incubation, the membranes were collected onto pretreated glass fiber filterplate (MultiScreen-FC, Millipore), with polyethylenimine 0.1%. The filters were washed two times with 200 μl of washing buffer (50 mM Tris Cl, pH=7.4) and then 25 μl of Ecoscint H liquid scintillation cocktail were added. Microplates were allowed to set for several hours and then quantified by liquid scintillation spectrophotometry (1450 Microbeta, Wallac). Nonspecific binding was determined with 1 μM haloperidol.

T1 sequence (Q60492 whole entry): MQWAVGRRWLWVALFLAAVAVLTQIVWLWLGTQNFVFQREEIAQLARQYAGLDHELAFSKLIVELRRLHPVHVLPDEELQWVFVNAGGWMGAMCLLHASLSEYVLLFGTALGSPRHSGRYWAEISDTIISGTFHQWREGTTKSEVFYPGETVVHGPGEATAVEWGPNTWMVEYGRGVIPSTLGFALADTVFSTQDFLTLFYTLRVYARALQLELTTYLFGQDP

SMILES | Ki [nM]
c1ccc(CN2C[C@@H]3[C@@H](C2)NCc2c(-c4ccccc4)nnn23)cc1 (racemic) [Example 1, (rac) (5a,8a-trans)-7-benzyl-3-phenyl-5,5a,6,7,8,8a-hexahydro-4H-pyrrolo[3,4-e][1,2,3]triazolo[1,5-a]pyrazine, hydrochloride] | < 100
O=C1N[C@H]2CN(Cc3ccccc3)C[C@H]2n2nnc(-c3ccccc3)c21 (racemic) [Example 2, (rac)-(5a,8a-cis)-7-benzyl-3-phenyl-5,5a,6,7,8,8a-hexahydro-4H-pyrrolo[3,4-e][1,2,3]triazolo[1,5-a]pyrazin-4-one] | > 500
c1ccc(CN2C[C@@H]3NCc4c(-c5ccccc5)nnn4[C@@H]3C2)cc1 (racemic) [Example 3, (rac) (5a,8a-cis)-7-benzyl-3-phenyl-5,5a,6,7,8,8a-hexahydro-4H-pyrrolo[3,4-e][1,2,3]triazolo[1,5-a]pyrazine] | 100 to 500
CC(=O)N1Cc2c(-c3ccccc3)nnn2[C@@H]2CN(Cc3ccccc3)C[C@H]21 (racemic) [Example 4, (rac) 1-((5a,8a-trans)-7-benzyl-3-phenyl-6,7,8,8a-tetrahydro-4H-pyrrolo[3,4-e][1,2,3]triazolo[1,5-a]pyrazin-5(5aH)-yl)ethanone hydrochloride] | 100 to 500
CCCN1C(=O)c2c(-c3ccccc3)nnn2[C@@H]2CN(Cc3ccccc3)C[C@@H]21 (racemic) [Example 5, (rac)-(5a,8a-cis)-7-benzyl-3-phenyl-5-propyl-5,5a,6,7,8,8a-hexahydro-4H-pyrrolo[3,4-e][1,2,3]triazolo[1,5-a]pyrazin-4-one] | > 500
CC(C)(C)OC(=O)N1Cc2c(-c3ccccc3)nnn2[C@@H]2CNC[C@H]21 (racemic) [Example 6, (rac)-(5a,8a-trans)-tert-butyl-3-phenyl-6,7,8,8a-tetrahydro-4H-pyrrolo[3,4-e][1,2,3]triazolo[1,5-a]pyrazine-5(5aH)-carboxylate] | > 500
CC(C)(C)OC(=O)N1Cc2c(-c3ccccc3)nnn2[C@@H]2CN(Cc3ccc(F)cc3)C[C@H]21 (racemic) [Example 7, (rac)-(5a,8a-trans)-tert-butyl-7-(4-fluorobenzyl)-3-phenyl-6,7,8,8a-tetrahydro-4H-pyrrolo[3,4-e][1,2,3]triazolo[1,5-a]pyrazine-5(5aH)-carboxylate] | > 500
Fc1ccc(CN2C[C@@H]3[C@@H](C2)NCc2c(-c4ccccc4)nnn23)cc1 (racemic) [Example 8, (rac) (5a,8a-trans)-7-(4-fluorobenzyl)-3-phenyl-5,5a,6,7,8,8a-hexahydro-4H-pyrrolo[3,4-e][1,2,3]triazolo[1,5-a]pyrazine hydrochloride] | < 100
CCCN1Cc2c(-c3ccccc3)nnn2[C@@H]2CN(Cc3ccccc3)C[C@H]21 (racemic) [Example 9, (rac) (5a,8a-trans)-7-benzyl-3-phenyl-5-propyl-5,5a,6,7,8,8a-hexahydro-4H-pyrrolo[3,4-e][1,2,3]triazolo[1,5-a]pyrazine hydrochloride] | < 100
CCCN1Cc2c(-c3ccccc3)nnn2[C@@H]2CNC[C@H]21 (racemic) [Example 10, (rac) (5a,8a-trans)-3-phenyl-5-propyl-5,5a,6,7,8,8a-hexahydro-4H-pyrrolo[3,4-e][1,2,3]triazolo[1,5-a]pyrazine hydrochloride] | > 500
CCCCCN1C[C@@H]2[C@@H](C1)n1nnc(-c3ccccc3)c1CN2CCC (racemic) [Example 11, (rac) (5a,8a-trans)-7-pentyl-3-phenyl-5-propyl-5,5a,6,7,8,8a-hexahydro-4H-pyrrolo[3,4-e][1,2,3]triazolo[1,5-a]pyrazine hydrochloride] | < 100
CN1Cc2c(-c3ccccc3)nnn2[C@@H]2CN(Cc3ccccc3)C[C@@H]21 (racemic) [Example 12, (rac) (5a,8a-cis)-7-benzyl-5-methyl-3-phenyl-5,5a,6,7,8,8a-hexahydro-4H-pyrrolo[3,4-e][1,2,3]triazolo[1,5-a]pyrazine] | < 100
CCCN1Cc2c(-c3ccccc3)nnn2[C@@H]2CN(Cc3ccccc3)C[C@@H]21 (racemic) [Example 13, (rac) (5a,8a-cis)-7-benzyl-3-phenyl-5-propyl-5,5a,6,7,8,8a-hexahydro-4H-pyrrolo[3,4-e][1,2,3]triazolo[1,5-a]pyrazine] | 100 to 500
CCCCCN1C[C@@H]2NCc3c(-c4ccccc4)nnn3[C@@H]2C1 (racemic) [Example 14, (rac) (5a,8a-cis)-7-pentyl-3-phenyl-5,5a,6,7,8,8a-hexahydro-4H-pyrrolo[3,4-e][1,2,3]triazolo[1,5-a]pyrazine] | < 100
CN1Cc2c(-c3ccccc3)nnn2[C@@H]2CN(Cc3ccccc3)C[C@H]21 (racemic) [Example 16, (rac) (5a,8a-trans)-7-benzyl-5-methyl-3-phenyl-5,5a,6,7,8,8a-hexahydro-4H-pyrrolo[3,4-e][1,2,3]triazolo[1,5-a]pyrazine hydrochloride] | < 100
CCC(=O)N1Cc2c(-c3ccccc3)nnn2[C@@H]2CN(Cc3ccccc3)C[C@H]21 (racemic) [Example 17, (rac) 1-((5a,8a-trans)-7-benzyl-3-phenyl-6,7,8,8a-tetrahydro-4H-pyrrolo[3,4-e][1,2,3]triazolo[1,5-a]pyrazin-5(5aH)-yl)propan-1-one hydrochloride] | 100 to 500
c1ccc(-c2nnn3c2CN[C@@H]2CN(CC4CC4)C[C@H]23)cc1 (racemic) [Example 18, (rac) (5a,8a-trans)-7-(cyclopropyl-methyl)-3-phenyl-5,5a,6,7,8,8a-hexahydro-4H-pyrrolo[3,4-e][1,2,3]triazolo[1,5-a]pyrazine hydrochloride] | 100 to 500
c1ccc(-c2nnn3c2CN[C@@H]2CN(C4CCOCC4)C[C@H]23)cc1 (racemic) [Example 19, (rac) (5a,8a-trans)-3-phenyl-7-(tetrahydro-2H-pyran-4-yl)-5,5a,6,7,8,8a-hexahydro-4H-pyrrolo[3,4-e][1,2,3]triazolo[1,5-a]pyrazine hydrochloride] | > 500
CS(=O)(=O)N1Cc2c(-c3ccccc3)nnn2[C@@H]2CN(Cc3ccccc3)C[C@H]21 (racemic) [Example 20, (rac) (5a,8a-trans)-7-benzyl-5-(methylsulfonyl)-3-phenyl-5,5a,6,7,8,8a-hexahydro-4H-pyrrolo[3,4-e][1,2,3]triazolo[1,5-a]pyrazine hydrochloride] | 100 to 500
Fc1ccccc1-c1nnn2c1CN[C@@H]1CN(Cc3ccccc3)C[C@H]12 (racemic) [Example 28, (rac) (5a,8a-trans)-7-benzyl-3-(2-fluorophenyl)-5,5a,6,7,8,8a-hexahydro-4H-pyrrolo[3,4-e][1,2,3]triazolo[1,5-a]pyrazine hydrochloride] | < 100
c1ccc(CN2C[C@@H]3NCCc4c(-c5ccccc5)nnn4[C@@H]3C2)cc1 (racemic) [Example 30, (rac) (6a,9a-cis)-8-benzyl-3-phenyl-4,5,6,6a,7,8,9,9a-octahydropyrrolo[3,4-b][1,2,3]triazolo[1,5-d][1,4]diazepine hydrochloride] | < 100
CCCN1CCc2c(-c3ccccc3)nnn2[C@@H]2CN(Cc3ccccc3)C[C@@H]21 (racemic) [Example 31, (rac) (6a,9a-cis)-8-benzyl-3-phenyl-6-propyl-4,5,6,6a,7,8,9,9a-octahydropyrrolo[3,4-b][1,2,3]triazolo[1,5-d][1,4]diazepine hydrochloride] | < 100
c1ccc(CN2C[C@@H]3[C@H](C2)N(CC2CC2)CCc2c(-c4ccccc4)nnn23)cc1 (racemic) [Example 32, (rac) (6a,9a-cis)-8-benzyl-6-(cyclopropylmethyl)-3-phenyl-4,5,6,6a,7,8,9,9a-octahydropyrrolo[3,4-b][1,2,3]triazolo[1,5-d][1,4]diazepine hydrochloride] | < 100
CCC(=O)N1CCc2c(-c3ccccc3)nnn2[C@@H]2CN(Cc3ccccc3)C[C@@H]21 (racemic) [Example 33, (rac) 1-((6a,9a-cis)-8-benzyl-3-phenyl-4,5,7,8,9,9a-hexahydropyrrolo[3,4-b][1,2,3]triazolo[1,5-d][1,4]diazepin-6(6aH)-yl)propan-1-one hydrochloride] | 100 to 500
O=C1N[C@H]2CNC[C@H]2n2nnc(-c3ccccc3)c21 (racemic) [Example 36, (rac)-(5a,8a-cis)-3-phenyl-5,5a,6,7,8,8a-hexahydro-4H-pyrrolo[3,4-e][1,2,3]triazolo[1,5-a]pyrazin-4-one hydrochloride] | > 500
CN1C(=O)c2c(-c3ccccc3)nnn2[C@@H]2CN(Cc3ccccc3)C[C@@H]21 (racemic) [Example 37, (rac)-(5a,8a-cis)-7-benzyl-5-methyl-3-phenyl-5,5a,6,7,8,8a-hexahydro-4H-pyrrolo[3,4-e][1,2,3]triazolo[1,5-a]pyrazin-4-one] | > 500
c1ccc(CN2C[C@@H]3NCc4c(-c5ccccc5)nnn4[C@@H]3C2)cc1 [Example 15, (5aS,8aR)-7-benzyl-3-phenyl-5,5a,6,7,8,8a-hexahydro-4H-pyrrolo[3,4-e][1,2,3]triazolo[1,5-a]pyrazine] | < 100
